Measurements published in ChEMBL document CHEMBL1132003, “2-chloro-3-substituted-1,4-naphthoquinone inactivators of human cytomegalovirus protease” (Bioorg Med Chem Lett, 1999).
Values belong to the compound of their own block, whether it stands above or below them.

Columns and labels:
MRC5 [1] = assay: Inhibitory activity against HCMV protease in a plaque assay (strain AD169 in MRC-5 cells); assay type: functional, cell-based; settings: Homo sapiens
MRC5 [2] = assay: Inhibitory activity against HCMV in a plaque assay(strain in MRC-5 cells); assay type: functional, cell-based; settings: Homo sapiens
[3] = tested on: HCMV protease (assemblin, Human betaherpesvirus 5); assay: Inhibitory activity against HCMV protease by SPA assay at 150 uM concentration
Neutrophil elastase = target: T1, Neutrophil elastase (Homo sapiens, UniProt P08246); assay: Inhibitory activity against human Elastase […]
T1 sequence (P08246 whole entry): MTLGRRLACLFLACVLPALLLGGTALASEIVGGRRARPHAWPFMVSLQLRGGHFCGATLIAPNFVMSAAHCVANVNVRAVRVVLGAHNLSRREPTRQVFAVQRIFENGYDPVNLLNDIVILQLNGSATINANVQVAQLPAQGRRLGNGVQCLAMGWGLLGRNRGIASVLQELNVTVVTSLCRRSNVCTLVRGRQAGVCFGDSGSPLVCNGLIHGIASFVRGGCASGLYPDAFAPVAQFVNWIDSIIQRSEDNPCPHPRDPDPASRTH

SMILES: CCOC(=O)C(C(C)=O)C1=C(Cl)C(=O)c2ccccc2C1=O (centres undefined)
IC50 (MRC5 [1]): 10 µM

SMILES: CC(=O)C(C(=O)OC(C)C)C1=C(Cl)C(=O)c2ccccc2C1=O (centres undefined)
IC50 (MRC5 [2]): 13 µM

inhibition [3]: 11%
SMILES: CC1(C)CC(=O)C(C2=C(O)C(=O)c3ccccc3C2=O)C(=O)C1

IC50 (Neutrophil elastase): 30 µM
SMILES: CC(=O)C(C(=O)OCc1ccccc1)C1=C(Cl)C(=O)c2ccccc2C1=O (centres undefined)
